In the supplement of paper PMC13380429:

What was measured:
Settings in all cases: 72 h
Caco-2 [1] = test: cell viability relative to DMSO; higher = less toxic
Calu-3 [2] = test: as above
HepG2 [3] = test: as above
U2OS [4] = test: as above
Vero E6 [5] = test: as above
Caco-2 [6] = test: relative viability EC50 (midpoint between 100% and the lowest measured viability); higher = less toxic
Calu-3 [7] = test: as above
HepG2 [8] = test: as above
U2OS [9] = test: as above
Vero E6 [10] = test: as above
Caco-2 [11] = test: drug sensitivity score (DSS) for viability; higher = more toxic; extreme values may be limits of the assay
Calu-3 [12] = test: as above
HepG2 [13] = test: as above
U2OS [14] = test: as above
Vero E6 [15] = test: as above

SMILES	cell viability (Caco-2 [1]; 1 nM) [%]	cell viability (Caco-2 [1]; 10 nM) [%]	cell viability (Caco-2 [1]; 100 nM) [%]	cell viability (Caco-2 [1]; 1000 nM) [%]	cell viability (Caco-2 [1]; 10000 nM) [%]	cell viability (Calu-3 [2]; 1 nM) [%]	cell viability (Calu-3 [2]; 10 nM) [%]	cell viability (Calu-3 [2]; 100 nM) [%]	cell viability (Calu-3 [2]; 1000 nM) [%]	cell viability (Calu-3 [2]; 10000 nM) [%]	cell viability (HepG2 [3]; 1 nM) [%]	cell viability (HepG2 [3]; 10 nM) [%]	cell viability (HepG2 [3]; 100 nM) [%]	cell viability (HepG2 [3]; 1000 nM) [%]	cell viability (HepG2 [3]; 10000 nM) [%]	cell viability (U2OS [4]; 1 nM) [%]	cell viability (U2OS [4]; 10 nM) [%]	cell viability (U2OS [4]; 100 nM) [%]	cell viability (U2OS [4]; 1000 nM) [%]	cell viability (U2OS [4]; 10000 nM) [%]	cell viability (Vero E6 [5]; 1 nM) [%]	cell viability (Vero E6 [5]; 10 nM) [%]	cell viability (Vero E6 [5]; 100 nM) [%]	cell viability (Vero E6 [5]; 1000 nM) [%]	cell viability (Vero E6 [5]; 10000 nM) [%]	relative viability EC50 (Caco-2 [6]) [µM]	relative viability EC50 (Calu-3 [7]) [µM]	relative viability EC50 (HepG2 [8]) [µM]	relative viability EC50 (U2OS [9]) [µM]	relative viability EC50 (Vero E6 [10]) [µM]	drug sensitivity score (Caco-2 [11])	drug sensitivity score (Calu-3 [12])	drug sensitivity score (HepG2 [13])	drug sensitivity score (U2OS [14])	drug sensitivity score (Vero E6 [15])
CNC(=N)NC(=O)Nc1c(C)cccc1C [lidamidine]	90.4	99	91.9	95.3	92.5	103	102	96.2	88.7	104	101	89.3	106	104	108	98.6	100	97.7	99.5	100	99.6	96	97.7	102	105	> 10	> 10	> 10	> 10	> 10	0	0	0	0	0
CCn1cc(C(=O)O)c(=O)c2cc(F)c(N3CCNC(C)C3)c(F)c21 (stereo not given) [lomefloxacin]	107	103	108	91.2	104	95.8	96.8	108	80.1	94.6	114	111	120	102	94.1	105	98.3	102	104	104	105	103	98.8	106	95.3	> 10	> 10	> 10	> 10	> 10	0	2.4	0	0	0
C/C(=C\C(=O)OCCCCCCCCC(=O)O)C[C@@H]1OC[C@H](C[C@@H]2O[C@H]2[C@@H](C)[C@H](C)O)[C@@H](O)[C@H]1O [mupirocin]	99.9	107	95.2	98	102	106	104	102	90.8	109	104	100	100	100	92.2	104	99.7	99.3	94.7	99.8	97	102	95.4	97.3	97.1	> 10	> 10	> 10	> 10	> 10	0	0	0	0	0
COc1c(C)c2c(c(O)c1C/C=C(\C)CCC(=O)O)C(=O)OC2 [mycophenolic-acid]	93.1	102	103	77.5	47	96.3	96.2	97.2	71.3	49.5	101	95.7	95.2	57.5	31.8	98.3	102	94.7	62.6	21.9	96.1	103	96.2	75.2	34.2	1.13	0.814	0.686	1.03	1.29	5.8	6	9	8.7	6.7
C=C1CC[C@@]2(O)[C@H]3Cc4ccc(O)c5c4[C@@]2(CCN3CC2CC2)[C@H]1O5 [nalmefene]	95.5	94.6	93.8	102	99.3	96.6	97.5	106	88.6	103	102	95.3	110	95.1	113	95.6	98.6	93.7	99.4	106	106	96.9	96.8	98.3	107	> 10	> 10	> 10	> 10	> 10	0	0	0	0	0
CC(C)(C)NCc1cc(Nc2ccnc3cc(Cl)ccc23)c2c(c1O)CCCC2 [naphthoquine-phosphate]	108	99.7	98.5	99.6	83	96.3	98	101	91	109	106	106	106	99.6	98.6	96.3	96.6	103	95.9	98.1	106	110	108	99.3	93.5	> 10	> 10	> 10	> 10	> 10	0.4	0	0	0	0
CC(C)(C)C(=O)CN1C(=O)[C@H](NC(=O)Nc2cccc(C(=O)O)c2)CN(C2CCCCC2)c2ccccc21 [nastorazepide]	96.6	95.4	93.1	92.7	95.8	96.7	104	113	98.8	118	99.9	106	96.7	108	95.9	100	96.7	103	96.5	100	104	105	99.2	105	98.8	> 10	> 10	> 10	> 10	> 10	0	0	0	0	0
COc1ccc2c(c1OC)C(=O)O[C@@H]2[C@H]1c2c(cc3c(c2OC)OCO3)CCN1C [noscapine]	115	109	98	110	105	97.3	103	102	95.9	95.8	105	100	86.2	100	104	103	98.7	101	97.5	102	98.4	102	96.9	104	104	> 10	> 10	> 10	> 10	> 10	0	0	0	0	0
Cc1cc(C)c(S(=O)(=O)Nc2ccccc2C(F)(F)F)c(C)c1 [o-3M3FBS]	94.2	99.4	98.3	97.7	103	98.9	99.5	89.4	100	93.7	102	109	95.6	94.9	99.4	96.8	99.8	97.8	95.6	96.5	95.8	98.4	94.3	88.3	97.3	> 10	> 10	> 10	> 10	> 10	0	0	0	0	0
CCCCCCCC/C=C\CCCCCCCC(N)=O [oleamide]	99.3	92.4	95.3	96.5	99.7	107	98.7	93.9	104	89.7	104	101	99.2	92.7	104	98.8	103	97.1	100	91.3	97.3	99.3	100	100	101	> 10	> 10	> 10	> 10	> 10	0	0	0	0	0
CN(C)c1cc(CNCC(C)(C)C)c(O)c2c1C[C@H]1C[C@H]3[C@H](N(C)C)C(O)=C(C(N)=O)C(=O)[C@@]3(O)C(O)=C1C2=O [omadacycline]	107	95.1	100	97.4	96.4	108	91.4	102	88.9	92.4	101	90.9	96.9	105	87	102	103	99.9	102	98.2	96.3	101	97.1	98.8	97.3	> 10	> 10	> 10	> 10	> 10	0	0.3	0	0	0
CCC(CC)O[C@@H]1C=C(C(=O)O)C[C@H](N)[C@H]1NC(C)=O [oseltamivir-carboxylate]	89.8	96.8	99.7	99.5	101	98.9	98.6	98.6	98.2	103	104	99.3	108	95.5	115	100	99.8	97.2	102	105	98.4	99.7	98.1	95.9	104	> 10	> 10	> 10	> 10	> 10	0	0	0	0	0
O=C1CCCCCCCCCCCCCCO1 [oxacyclohexadecan-2-one]	103	95.1	90	92.8	102	93.2	99.1	91.9	90	90.7	109	93.8	105	86	97.7	101	98.9	95.8	101	98	102	106	102	88.8	102	> 10	> 10	> 10	> 10	> 10	0	0	0	0	0
O=c1[nH]c2ccccc2n1CCCN1CCN(C(c2ccccc2)c2ccccc2)CC1 [oxatomide]	117	98.6	99.1	112	83.7	107	96.1	105	99.2	101	97.7	104	114	81.7	92.2	100	102	94.1	97.1	106	106	93.1	99.9	91.7	95.6	> 10	> 10	> 10	> 10	> 10	0.1	0	1.9	0	0
